“Also recorded” adds a separate entry of the source.
How the values were obtained:
[1] = tested on: HCT116-luc cells; assay: Cecum-to-liver metastasis model, GREM1-CM-pre-treated HCT116-luc in NOG mice; assay type: in vivo, human cells in NOG mice; conditions: cecum wall, SB505124 10 mg/kg i.p. every other day, IVIS, n = 5 mice per group
Source text: To determine the role of the ACVR1C–SMAD2/3 axis in GREM1-mediated EMT in vivo, we harnessed HCT116 cells carrying a luciferase reporter (HCT116-luc), which stably express either shACVR1C or a scramble shRNA. These cells were pretreated with GREM1-CM prior to their subcutaneous transplantation into nude mice. […] These findings were further corroborated by IF staining of EMT markers, including E-CAD and SNAIL (Figs. 5E–G). As a complementary pharmacological approach, we inhibited ACVR1C-mediated SMAD2/3 activation using SB505124. […] Importantly, to investigate the impact of the ACVR1C–SMAD2/3 axis on metastasis, we injected GREM1-CM-pre-treated HCT116-luc cells, stably expressing either shACVR1C or scramble shRNA, into the tail vein of nude mice. […]
Figure S8. […] E-G, Representative IF images (E) and quantification (F, G) of E-CAD (green), SNAIL (red), and DAPI (blue) staining in tumors from the indicated groups. […] H, I, Representative IVIS images (H) and quantification (I) of NOG mice that were injected with HCT116-luc cells in the cecum wall and treated with either SB505124 or vehicle via abdominal injection. Liver metastases were imaged and quantified using the IVIS Lumina Imaging System (n = 5 mice per group). […] P values were calculated using one-way ANOVA with Bonferroni multiple-comparison test (B–D, F, and G) or two-tailed Student’s t-test (I).

[2] = tested on: HCT116 cells; assay: Subcutaneous transplantation of GREM1-CM-pretreated HCT116 cells in nude mice; assay type: in vivo, human cells in nude mice; conditions: SB505124 10 mg/kg i.p. every other day
Method: For cecum-to-liver metastasis model, 1 × 10^6 MC38-luc cells were resuspended in 50 µL of PBS and injected into the cecum of GD mice or control mice (Grem1-CreER^T2/Rosa-LSL-DTA mice) (n = 6 mice in each group); 5 × 10^6 HCT116-luc cells transduced with lentivirus carrying a pLV or pLV-GREM1 were injected into the cecum of NOG mice (n = 5 mice in each group). SB505124 was administered via intraperitoneal injection at a dose of 10 mg/kg once every other day. The metastases were examined every 5 days post injection using an IVIS Lumina Imaging System. Mice were euthanized between 2 and 6 weeks after injection. […] Mice were euthanized 4 weeks after injection. The tumor tissues were collected for further evaluation.
Figure S8. SB505124 inhibits GREM1-CM-induced EMT and metastasis of CRC in vivo. […] D, RT–qPCR analysis of epithelial marker CDH1 and mesenchymal markers CTNNB1, SNAI1, ZEB1 in subcutaneous tumor tissues from the indicated treatment groups. n = 3 independent experiments. E-G, Representative IF images (E) and quantification (F, G) of E-CAD (green), SNAIL (red), and DAPI (blue) staining in tumors from the indicated groups. […] H, I, Representative IVIS images (H) and quantification (I) of NOG mice that were injected with HCT116-luc cells in the cecum wall and treated with either SB505124 or vehicle via abdominal injection. Liver metastases were imaged and quantified using the IVIS Lumina Imaging System (n = 5 mice per group). For B–D, F, G and I, data are presented as mean ± s.e.m. P values were calculated using one-way ANOVA with Bonferroni multiple-comparison test (B–D, F, and G) or two-tailed Student’s t-test (I).

[3] = tested on: GREM1 promoter; assay: ChIP–qPCR, SMAD2/3/4 binding to GREM1 promoter; assay type: cell-based, human; conditions: SW480 cells, SB505124 10 µM, 24 h, n = 3 independent experiments
Method: SW480 cells were starved in DMEM with 1% FCS overnight before treatment with vehicle, 10 µM SB505124 for 24 h. Cells were fixed in 1% paraformaldehyde for 10 min at RT for DNA-protein cross-linking, followed by quenching with glycine. Cross-linking chromatin was prepared using the SimpleChIP® Enzymatic Chromatin IP Kit (CST, 9002) according to the manufacturer’s instructions. For immunoprecipitation, 10 µg chromatin was incubated with 10 µL anti-histone H3 rabbit IgG (CST, 14269, positive control), 2 µL normal Rabbit IgG (CST, 2729) or 5 µL anti-SMAD2/3 rabbit IgG (CST, 8685) at 4 °C overnight. 2% chromatin prior to immunoprecipitation was used as input. Chromatin-protein-antibody complex was captured by protein G magnetic beads, and chromatin was released by reversal of cross-links and purified using the SimpleChIP® Enzymatic Chromatin IP Kit (CST, 9002) according to the manufacturer’s instructions. DNA was quantified by qPCR with primers targeting predicted SMAD2/3/4 binding regions on GREM1 or SNAI1 promoters. DNA levels were normalized to the input, and the fold-change of enrichment was calculated over the control. ChIP–qPCR primers are listed in Supplementary Table 2.

Cc1cccc(-c2[nH]c(C(C)(C)C)nc2-c2ccc3c(c2)OCO3)n1 [SB505124]
liver metastasis [1]: significant reduction in liver metastasis; also recorded: markedly attenuated the metastatic phenotype induced by GREM1-CM
E-CAD and SNAIL expression in subcutaneous tumors ([2]; IF, n = 5 mice per group): restored E-CAD expression and suppressed SNAIL expression
subcutaneous tumor progression and EMT ([2]; nude mice, GREM1-CM-pretreated HCT116, n = 6 mice per group): suppressed tumor progression and EMT
SMAD2/3/4 binding to GREM1 promoter −733 and −612 sites [3]: significantly reduced this binding

— publication PMC13371181, “A paracrine-to-autocrine shunt of GREM1 fuels colorectal cancer metastasis via ACVR1C” (Molecular Cancer, 2026)
